How the values were obtained:
Test in all cases: combination Emax (second highest fraction inhibited in the dose matrix, 72 h); higher = more inhibition; extreme values may be limits of the assay
[1] = test system: NUGC-4 (Gastric Carcinoma)
Method in brief: (§1)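 Cell lines in DMEM/F12 or RPMI with 10% FBS were plated in 1536-well plates, held 24 hours at 37°C, 5% CO2, then given two-drug dose matrices for 72 hours (DMSO typically 0.2%). Viability was read by CellTiter-Glo 2.0 luminescence and scaled as inhibition from 0 (vehicle wells) to 1 (blank wells). Combination Emax is the second-highest inhibition in the matrix; Bliss excess is observed combination effect minus expected EA + EB − EA·EB, EA and EB being single-agent effects.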

[2] = test system: LOXIMVI (Melanoma)
Method in brief: as §1

[3] = test system: TGBC1TKB (Biliary Tract Carcinoma)
Method in brief: as §1

[4] = test system: SW1710 (Bladder Carcinoma)
Method in brief: as §1

[5] = test system: FTC-133 (Thyroid Gland Carcinoma)
Method in brief: as §1

[6] = test system: CAL-33 (Oral Cavity Carcinoma)
Method in brief: as §1

[7] = test system: Hs-746T (Gastric Carcinoma)
Method in brief: as §1

[8] = test system: LNZTA3WT4 (Low Grade Glioma)
Method in brief: as §1

[9] = test system: NCI-H209 (Small Cell Lung Carcinoma)
Method in brief: as §1

[10] = test system: OVCAR-5 (Ovarian Carcinoma)
Method in brief: as §1

[11] = test system: A673 (Ewing's Sarcoma)
Method in brief: as §1

[12] = test system: KMRC-20 (Kidney Carcinoma)
Method in brief: as §1

[13] = test system: WSU-NHL (B-Cell Non-Hodgkin's Lymphoma)
Method in brief: as §1

[14] = test system: NCI-H1568 (Lung Adenocarcinoma)
Method in brief: as §1

[15] = test system: BE2-M17 (Neuroblastoma)
Method in brief: as §1

[16] = test system: KYAE-1 (Esophageal Adenocarcinoma)
Method in brief: as §1

[17] = test system: NCI-H524 (Small Cell Lung Carcinoma)
Method in brief: as §1

[18] = test system: OV-56 (Ovarian Carcinoma)
Method in brief: as §1

[19] = test system: CAL-72 (Osteosarcoma)
Method in brief: as §1

[20] = test system: HuCCT1 (Biliary Tract Carcinoma)
Method in brief: as §1

In the case of `Cc1cc2ncnn2cc1Nc1ncc2c(n1)n(C1CCOCC1)c(=O)n2C` [AZD7648] + CN(C)CCCOc1ccc(-c2ccc3ncc4c(c3c2)n(C2CCOCC2)c(=O)n4C)cn1 [AZD0156] (first compound max 10 µM, 7x7, partner max 1 µM), the “combination Emax” value [1] is reported as 0.216, the “combination Emax” value [2] is reported as 0.478 and the “combination Emax” value [3] is reported as 0.398. For the same molecule, the “combination Emax” value [4] was 0.217, the “combination Emax” value [5] was 0.241 and the “combination Emax” value [6] was 0.375. For the same molecule, the “combination Emax” value [7] was 0.36, the “combination Emax” value [8] was 0.276 and the “combination Emax” value [9] was 0.237. The “combination Emax” value [10] was 0.287, the “combination Emax” value [11] was 0.336 and the “combination Emax” value [12] was 0.201. For the same molecule, the “combination Emax” value [13] was 0.498, the “combination Emax” value [14] was 0.24 and the “combination Emax” value [15] was 0.283. For the same molecule, the “combination Emax” value [16] was 0.121, the “combination Emax” value [17] was 0.312 and the “combination Emax” value [18] was 0.224. The “combination Emax” value [19] was 0.399 and the “combination Emax” value [20] was 0.389.

With `CN(CCO)CC[C@H](CSc1ccccc1)Nc1ccc(S(=O)(=O)NC(=O)c2ccc(N3CCC([C@@H](O)c4ccccc4-c4ccc(Cl)cc4)CC3)cc2)cc1S(=O)(=O)C(F)(F)F` [AZD4320] + C[C@@H]1COCCN1C2=NC(=NC(=C2)C3(CC3)[S@](=N)(=O)C)C4=C5C=CNC5=NC=C4 [AZD6738] (first compound max 1 µM, 7x7, partner max 10 µM) the “combination Emax” value [1] was 0.739, the “combination Emax” value [2] was 0.892 and the “combination Emax” value [3] was 0.666. The “combination Emax” value [4] was 0.705, the “combination Emax” value [5] was 0.947 and the “combination Emax” value [6] was 0.964. For the same molecule, the “combination Emax” value [7] was 0.782, the “combination Emax” value [8] was 0.804 and the “combination Emax” value [9] was 1. For the same molecule, the “combination Emax” value [10] was 0.842, the “combination Emax” value [11] was 1 and the “combination Emax” value [12] was 0.721. The “combination Emax” value [13] was 0.968, the “combination Emax” value [14] was 0.522 and the “combination Emax” value [15] was 0.93. The “combination Emax” value [16] was 0.51, the “combination Emax” value [17] was 0.939 and the “combination Emax” value [18] was 0.836. For the same molecule, the “combination Emax” value [19] was 0.932 and the “combination Emax” value [20] was 0.765.

With `Cc1cc2ncnn2cc1Nc1ncc2c(n1)n(C1CCOCC1)c(=O)n2C` [AZD7648] + CCN(CCO)CCCOc1ccc2c(Nc3cc(CC(=O)Nc4cccc(F)c4)[nH]n3)ncnc2c1 [AZD2811] (first compound max 10 µM, 7x7, partner max 1 µM) the “combination Emax” value [1] was 0.281, the “combination Emax” value [2] was 0.449 and the “combination Emax” value [3] was 0.313. For the same molecule, the “combination Emax” value [4] was 0.202, the “combination Emax” value [5] was 0.354 and the “combination Emax” value [6] was 0.913. For the same molecule, the “combination Emax” value [7] was 0.386, the “combination Emax” value [8] was 0.266 and the “combination Emax” value [9] was 0.596. For the same molecule, the “combination Emax” value [10] was 0.262, the “combination Emax” value [11] was 0.765 and the “combination Emax” value [12] was 0.275. The “combination Emax” value [13] was 0.976, the “combination Emax” value [14] was 0.185 and the “combination Emax” value [15] was 0.379. For the same molecule, the “combination Emax” value [16] was 0.207, the “combination Emax” value [17] was 0.985 and the “combination Emax” value [18] was 0.276. The “combination Emax” value [19] was 0.436 and the “combination Emax” value [20] was 0.406.

In the case of `COc1cc2c(cc1OCCCCCOc1cc3c(cc1OC)C(=O)N1C=C(C)C[C@H]1C=N3)N=C[C@@H]1CC(C)=CN1C2=O` [SG3199] + O=C(c1cc(Cc2n[nH]c(=O)c3ccccc23)ccc1F)N1CCN(C(=O)C2CC2)CC1 [Olaparib] (first compound max 0.001 µM, 7x7, partner max 10 µM), the “combination Emax” value [1] is reported as 0.219, the “combination Emax” value [2] is reported as 0.187 and the “combination Emax” value [3] is reported as 0.0857. For the same molecule, the “combination Emax” value [4] was 0.112, the “combination Emax” value [5] was 0.134 and the “combination Emax” value [6] was 0.143. The “combination Emax” value [7] was 0.292, the “combination Emax” value [8] was 0.0132 and the “combination Emax” value [9] was 0.913. The “combination Emax” value [10] was 0.0819, the “combination Emax” value [11] was 0.563 and the “combination Emax” value [12] was 0.128. The “combination Emax” value [13] was 0.763, the “combination Emax” value [14] was 0.191 and the “combination Emax” value [15] was 0.299. The “combination Emax” value [16] was 0.128, the “combination Emax” value [17] was 0.196 and the “combination Emax” value [18] was 0.131. For the same molecule, the “combination Emax” value [19] was 0.23 and the “combination Emax” value [20] was 0.0094.

With `Cc1cc2ncnn2cc1Nc1ncc2c(n1)n(C1CCOCC1)c(=O)n2C` [AZD7648] + O=C(c1cc(Cc2n[nH]c(=O)c3ccccc23)ccc1F)N1CCN(C(=O)C2CC2)CC1 [Olaparib] (first compound max 10 µM, 7x7, partner max 10 µM) the “combination Emax” value [1] was 0.202, the “combination Emax” value [2] was 0.479 and the “combination Emax” value [3] was 0.201. For the same molecule, the “combination Emax” value [4] was 0.0781, the “combination Emax” value [5] was 0.259 and the “combination Emax” value [6] was 0.243. The “combination Emax” value [7] was 0.337, the “combination Emax” value [8] was 0.0958 and the “combination Emax” value [9] was 0.917. The “combination Emax” value [10] was 0.231, the “combination Emax” value [11] was 0.585 and the “combination Emax” value [12] was 0.282. For the same molecule, the “combination Emax” value [13] was 0.71, the “combination Emax” value [14] was 0.212 and the “combination Emax” value [15] was 0.414. The “combination Emax” value [16] was 0.0816, the “combination Emax” value [17] was 0.365 and the “combination Emax” value [18] was 0.103. For the same molecule, the “combination Emax” value [19] was 0.322 and the “combination Emax” value [20] was 0.185.

With `Cc1nc(Nc2ncc(C(=O)Nc3c(C)cccc3Cl)s2)cc(N2CCN(CCO)CC2)n1` [Dasatinib] + CC(=O)Nc1cccc(-n2c(=O)n(C3CC3)c(=O)c3c(Nc4ccc(I)cc4F)n(C)c(=O)c(C)c32)c1 [Trametinib] (first compound max 2 µM, 7x7, partner max 1 µM) the “combination Emax” value [1] was 0.431, the “combination Emax” value [2] was 1 and the “combination Emax” value [3] was 0.715. For the same molecule, the “combination Emax” value [4] was 0.77, the “combination Emax” value [5] was 0.261 and the “combination Emax” value [6] was 0.629. The “combination Emax” value [7] was 0.746, the “combination Emax” value [8] was 0.329 and the “combination Emax” value [9] was 0.124. For the same molecule, the “combination Emax” value [10] was 0.905, the “combination Emax” value [11] was 0.237 and the “combination Emax” value [12] was 0.57. For the same molecule, the “combination Emax” value [13] was 0.962, the “combination Emax” value [14] was 0.668 and the “combination Emax” value [15] was 0.868. The “combination Emax” value [16] was 0.0573, the “combination Emax” value [17] was 0.0954 and the “combination Emax” value [18] was 0.446. The “combination Emax” value [19] was 0.545 and the “combination Emax” value [20] was 0.772.

`C[C@@H](c1ccc2nccn2c1)n1nnc2ncc(-c3cnn(C)c3)nc21` [Savolitinib] + CC1(C)CCC(CN2CCN(c3ccc(C(=O)NS(=O)(=O)c4ccc(NCC5CCOCC5)c([N+](=O)[O-])c4)c(Oc4cnc5[nH]ccc5c4)c3)CC2)=C(c2ccc(Cl)cc2)C1 [Venetoclax] (first compound max 1 µM, 7x7, partner max 1 µM) was tested, and the “combination Emax” value [1] was 0.167, the “combination Emax” value [2] was 0.232 and the “combination Emax” value [3] was 0.144. For the same molecule, the “combination Emax” value [4] was 0.0997, the “combination Emax” value [5] was 0.17 and the “combination Emax” value [6] was 0.154. The “combination Emax” value [7] was 0.664, the “combination Emax” value [8] was 0.162 and the “combination Emax” value [9] was 0.373. For the same molecule, the “combination Emax” value [10] was 0.0951, the “combination Emax” value [11] was 0.309 and the “combination Emax” value [12] was 0.148. The “combination Emax” value [13] was 0.315, the “combination Emax” value [14] was 0.0767 and the “combination Emax” value [15] was 0.0964. For the same molecule, the “combination Emax” value [16] was 0.0925, the “combination Emax” value [17] was 0.13 and the “combination Emax” value [18] was 0.158. For the same molecule, the “combination Emax” value [19] was 0.181 and the “combination Emax” value [20] was 0.107.

From the supplement of paper PMC11061612
